Measured values taken from article PMC4764904 (Scientific Reports, 2016).
Marks after values point to notes of the source that are not given here. Where a SMILES comes first, the peptide text is derived from it. [ ]: non-standard residue; d: D form. The star is where a group is joined. Fmoc = O=C(OCC1c2ccccc2-c2ccccc21)*

Key:
human GALR3 = molecular target: T1, human GALR3 (Homo sapiens, UniProt O60755); assay: SRE-luc reporter assay, GALR3;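 note: luciferase activity read in cell lysates across rising peptide concentrations, EC50 being the agonist concentration giving half-maximal stimulation from a sigmoidal nonlinear fit, Gαqi routing Gi-coupled receptor signaling through Gq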; type: cell-based; conditions: HEK293-Gqi cells transfected with SRE-luc and human GALR3; 6 h ligand treatment; mean ± S.E. of at least three independent experiments; NM = not measurable; read-out: GALR3 EC50
T1 construct: host or cells: HEK293 cells stably expressing Gαqi
T1 sequence (O60755 1-368): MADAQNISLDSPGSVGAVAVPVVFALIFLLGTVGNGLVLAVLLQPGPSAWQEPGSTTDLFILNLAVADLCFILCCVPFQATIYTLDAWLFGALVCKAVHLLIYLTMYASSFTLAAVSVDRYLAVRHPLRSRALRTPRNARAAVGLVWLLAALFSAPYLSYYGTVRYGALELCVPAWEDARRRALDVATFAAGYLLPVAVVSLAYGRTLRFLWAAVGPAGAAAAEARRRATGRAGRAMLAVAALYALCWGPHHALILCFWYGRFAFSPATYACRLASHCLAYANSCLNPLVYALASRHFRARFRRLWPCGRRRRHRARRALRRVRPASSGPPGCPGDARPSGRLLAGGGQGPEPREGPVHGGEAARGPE
Experimental: (§4) The generated mutant SPX peptides were incubated with cells expressing GALR2 and GALR3. […] The activities of the receptors were traced using the serum-response element-driven luciferase (SRE-luc) assay system.
(§5) The SRE-luc reporter vector and plasmid containing human GALR1, GALR2, or GALR3 were transfected into HEK293 cells that stably expressed Gqi protein. Cells were then treated with increasing concentrations of mutant peptides, and the receptor activities were determined using the SRE-luc reporter system.
(§6) HEK293 cells stably expressing Gαqi, which mediates Gαi-coupled receptor activation by stimulating Gαq-dependent signaling pathways[59], were maintained in Dulbecco’s modified Eagle’s medium (DMEM) supplemented with 10% FBS, 100 U/ml penicillin G, and 100 μg/ml streptomycin (Invitrogen). Cells were seeded in 48-well plates at a density of 2 × 10^4 cells per well, one day before transfection. A mixture containing 75 ng of the SRE-luc reporter construct, 75 ng of expression plasmid, and 2 μl of Effectene reagent (Qiagen, Chatsworth, CA, USA) was prepared and added to each well according to the manufacturer’s instructions. Cells were then maintained in serum-free DMEM for 16–18 h before treatment with the ligands. Approximately 48 h after transfection, cells were treated with the respective ligands for 6 h. Cells were lysed by the addition of 100 μl lysis buffer. The luciferase activity in 50 μl of cell extract was determined by a luciferase assay system according to the standard protocol for the Synergy 2 Multi-Mode Microplate Reader (BioTek, Winooski, VT, USA).
(§7) For in vitro studies data analysis was performed by nonlinear regression with a sigmoidal dose-response. The agonist concentrations that induced half-maximal stimulation (EC50) or half-maximal inhibition of binding (IC50) were calculated with GraphPad PRISM4 software (GraphPad Software Inc., San Diego, CA, USA). […] All data are presented as mean ± S.E. of at least three independent experiments and a P value of P < 0.05 was considered statistically significant.

[1] = Peptide stability in FBS by residual IP3 production; type: in vitro ADME, bovine; conditions: for Half-life activity (h) in FBS: peptide 1 μM in 100% FBS, 37 °C, 0, 3, 6, 12, 24, 48, 72 h, residual activity read as IP3 production ([3H]-inositol) in HEK293 cells expressing GALR2, mean ± S.E., at least three independent experiments
Experimental: (§1) To investigate the effects of the modifications on proteolytic susceptibility, the functional activity of peptides that were incubated in 100% serum at 37 °C for 0, 3, 6, 12, 24, 48, and 72 h was determined via inositol 1,4,5-triphosphate (IP3) production in GALR2-expressing cells (Fig. 4A–C and Table 3). […] In addition, dAla4 and dGln14 substitutions contribute to longer longevity of the peptide in serum. In an additional experiment, we examined the degradation rates of the Qu mutant, as well as the Qu mutant with an N-terminal modification and/or dAla4 and dGln14 substitutions.
(§2) Figure 4 Stability of SPX mutants in the presence of FBS (A) Qu analogs in FBS (B) and human serum (C). Potency of Qu mutants toward GALR2 (D) and GALR3 (E). For stability of SPX mutants, peptides (1 μM) were incubated in serum for 0, 3, 6, 12, 24, 48, and 72 hrs. The remaining activities of the peptides were determined by measuring IP3 production by HEK293 cells that express GALR2 after the indicated times. IP3 production was expressed as percent change, where 100% indicates IP3 production by WT SPX incubated in FBS or human serum for 0 h. For potency of Qu mutants toward GALR2 and GALR3, the SRE-luc reporter vector and plasmid containing human GALR2 or GALR3 were transfected into HEK293 cells that stably expressed Gqi protein. Cells were then treated with increasing concentrations of mutant peptides, and the receptor activities were determined using the SRE-luc reporter system.
(§3) To evaluate the stability of SPX and its analogs in FBS or human serum, peptides were incubated at an initial concentration of 1 μM in 100% serum at 37 °C for 0, 3, 6, 12, 24, 48, and 72 hours. Residual peptide activity was then assessed by measuring IP3 in HEK293 cells expressing GALR2. For the IP3 assay, cells were seeded in 12-well plates at a density of 2.5 × 10^5 cells per well, and then the next day, cells were transiently transfected with 1 μg/well of plasmid containing GALR2 using the Lipofectamine 2000 (Invitrogen) transfection reagent. The day following transfection, cells were incubated in M199 media containing 1% FBS, 1% L-glutamine, 1% penicillin/streptomycin, and 1 μCi/well of myo-^3H inositol for 20 h. After a 30-min incubation in buffer A (140 mM NaCl, 20 mM Hepes, 4 mM KCl, 8 mM D-glucose, 1 mM MgCl2, 1 mM CaCl2, 1 mg/ml free fatty acid bovine serum albumin (BSA), and 10 mM LiCl at pH 7.2), cells were treated with the agonist for 40 min at 37 °C. Media was removed, and the reactions were terminated by addition of 1 ml of 10 mM cold formic acid to each well. The plates were stored at 4 °C for 30 min, and the extracts were then transferred into 6-ml plastic tubes containing 500 μl AG1–8X anion exchange columns (BIO-RAD). The tubes were gently mixed with a vortexer, and the supernatants were removed by aspiration. Two washes with 1 ml of distilled water were performed followed by two additional washes with 60 mM ammonium formate/5mM sodium tetraborate. Tritiated inositol was separated from the column by elution with 1 ml of 1 M ammonium formate/0.1 M formic acid, and 800 μl from the elution were taken from each tube and transferred into 6-ml scintillation vials. Then, 2 ml of scintillation cocktail solution (Ultima Gold^TM, Perkin Elmer, Waltham MA, USA) was added to each sample. The radioactivity of [^3H]-myo-inositol samples was measured using a TRI carb 3100TR liquid scintillation analyzer (Packard).

human GALR2 = molecular target: T2, human GALR2 (Homo sapiens, UniProt O43603); assay: SRE-luc reporter assay, GALR2;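 note: luciferase activity read in cell lysates after exposure to rising peptide concentrations, EC50 being the agonist level giving half-maximal stimulation from a sigmoidal nonlinear regression fit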; type: cell-based; conditions: HEK293-Gqi cells transfected with SRE-luc and human GALR2; 6 h ligand treatment; mean ± S.E. of at least three independent experiments; NM = not measurable; read-out: GALR2 EC50
T2 construct: host or cells: HEK293 cells stably expressing Gαqi
T2 sequence (O43603 1-387): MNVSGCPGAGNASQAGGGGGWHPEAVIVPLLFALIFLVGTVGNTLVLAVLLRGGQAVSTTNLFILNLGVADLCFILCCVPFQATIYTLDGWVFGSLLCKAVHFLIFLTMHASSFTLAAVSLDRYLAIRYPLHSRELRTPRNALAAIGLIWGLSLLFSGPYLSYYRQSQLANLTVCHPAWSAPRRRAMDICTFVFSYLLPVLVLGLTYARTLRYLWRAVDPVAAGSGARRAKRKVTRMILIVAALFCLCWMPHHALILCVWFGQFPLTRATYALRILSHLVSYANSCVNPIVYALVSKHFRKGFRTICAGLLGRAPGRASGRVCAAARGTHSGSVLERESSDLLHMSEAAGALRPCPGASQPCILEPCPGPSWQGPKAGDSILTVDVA
Experimental: as §4, §5, §6, §7

[2] = Peptide stability in human serum by residual IP3 production; type: in vitro ADME; conditions: peptide 1 μM in 100% human serum, 37 °C, 0, 3, 6, 12, 24, 48, 72 h; residual activity read as IP3 production ([3H]-inositol) in HEK293 cells expressing GALR2; mean ± S.E., at least three independent experiments
Experimental: as §1, §2, §3

Row | EC50 (human GALR3) [nM] | Half-life activity (h) in FBS [1] | EC50 (human GALR2) [nM] | Half-life activity (h) in Human Serum [2] | Initial activity abolished after incubation in FBS ([1]; 12-h incubation in 100% FBS, 37 °C, peptide 1 μM, IP3 production in GALR2-expressing cells) [%] | Compound
1 | 81.3 ± 16.7 | 8.7 ± 0.6 ^a h | 58.9 ± 11 |  |  | CSCC[C@H](NC(=O)[C@H](C)NC(=O)[C@H](CCC(N)=O)NC(=O)[C@@H]1CCCN1C(=O)[C@@H](NC(=O)[C@H](Cc1c[nH]c2ccccc12)NC(=O)[C@H](CC(N)=O)NC(C)=O)[C@@H](C)O)C(=O)N[C@@H](CC(C)C)C(=O)N[C@@H](Cc1ccc(O)cc1)C(=O)N[C@@H](CC(C)C)C(=O)N[C@@H](CCCCN)C(=O)NCC(=O)N[C@@H](C)C(=O)N[C@@H](CCC(N)=O)C(N)=O [Ac-N1]
2 |  | 11.8 ± 0.2 ^a h |  | 8.8 ± 0.2 ^a h |  | CC(C)C[C@H](NC(=O)[C@H](C)NC(=O)[C@H](C)NC(=O)[C@H](CC(N)=O)NC(=O)[C@@H](C)NC(=O)[C@@H](NC(=O)[C@H](Cc1c[nH]c2ccccc12)NC(=O)[C@H](CC(N)=O)NC(=O)OCC1c2ccccc2-c2ccccc21)[C@@H](C)O)C(=O)N[C@@H](Cc1ccc(O)cc1)C(=O)N[C@@H](CC(C)C)C(=O)N[C@@H](Cc1ccccc1)C(=O)NCC(=O)N1CCC[C@H]1C(=O)N[C@H](CCC(N)=O)C(N)=O [Fmoc-Qu-dA4-dQ14] (Fmoc-NWT[dA]NAALYLFGP[dQ]-NH2)
3 |  | 8.4 ± 0.3 ^a h |  | 6.3 ± 0.1 ^a h |  | CC(C)C[C@H](NC(=O)[C@H](C)NC(=O)[C@H](C)NC(=O)[C@H](CC(N)=O)NC(=O)[C@@H]1CCCN1C(=O)[C@@H](NC(=O)[C@H](Cc1c[nH]c2ccccc12)NC(=O)[C@H](CC(N)=O)NC(=O)OCC1c2ccccc2-c2ccccc21)[C@@H](C)O)C(=O)N[C@@H](Cc1ccc(O)cc1)C(=O)N[C@@H](CC(C)C)C(=O)N[C@@H](Cc1ccccc1)C(=O)NCC(=O)N1CCC[C@H]1C(=O)N[C@H](CCC(N)=O)C(N)=O [Fmoc-Qu-dQ14] (Fmoc-NWTPNAALYLFGP[dQ]-NH2)
4 |  | 6.1 ± 0.2 ^a h |  | 4.9 ± 0.1 ^a h |  | CC(C)C[C@H](NC(=O)[C@H](C)NC(=O)[C@H](C)NC(=O)[C@H](CC(N)=O)NC(=O)[C@@H]1CCCN1C(=O)[C@@H](NC(=O)[C@H](Cc1c[nH]c2ccccc12)NC(=O)[C@H](CC(N)=O)NC(=O)OCC1c2ccccc2-c2ccccc21)[C@@H](C)O)C(=O)N[C@@H](Cc1ccc(O)cc1)C(=O)N[C@@H](CC(C)C)C(=O)N[C@@H](Cc1ccccc1)C(=O)NCC(=O)N1CCC[C@H]1C(=O)N[C@@H](CCC(N)=O)C(N)=O [Fmoc-Qu] (Fmoc-NWTPNAALYLFGPQ-NH2)
5 | 126 ± 25.9 | 14.2 ± 0.2 ^a h | 77.6 ± 16 |  |  | CSCC[C@H](NC(=O)[C@H](C)NC(=O)[C@H](CCC(N)=O)NC(=O)[C@@H]1CCCN1C(=O)[C@@H](NC(=O)[C@H](Cc1c[nH]c2ccccc12)NC(=O)[C@H](CC(N)=O)NC(=O)OCC1c2ccccc2-c2ccccc21)[C@@H](C)O)C(=O)N[C@@H](CC(C)C)C(=O)N[C@@H](Cc1ccc(O)cc1)C(=O)N[C@@H](CC(C)C)C(=O)N[C@@H](CCCCN)C(=O)NCC(=O)N[C@@H](C)C(=O)N[C@@H](CCC(N)=O)C(N)=O [Fmoc]
6 | 112 ± 14.5 | 4.1 ± 0.5 h | 45.7 ± 5.9 |  | 80 | CSCC[C@H](NC(=O)[C@H](C)NC(=O)[C@H](CCC(N)=O)NC(=O)[C@@H]1CCCN1C(=O)[C@@H](NC(=O)[C@H](Cc1c[nH]c2ccccc12)NC(=O)[C@@H](N)CC(N)=O)[C@@H](C)O)C(=O)N[C@@H](CC(C)C)C(=O)N[C@@H](Cc1ccc(O)cc1)C(=O)N[C@@H](CC(C)C)C(=O)N[C@@H](CCCCN)C(=O)NCC(=O)N[C@@H](C)C(=O)N[C@@H](CCC(N)=O)C(N)=O [WT, spexin, reference compound]
7 | 112 ± 23.1 | 8.7 ± 0.4 ^a h | 97.7 ± 18.3 |  |  | CSCC[C@H](NC(=O)[C@H](C)NC(=O)[C@H](CCC(N)=O)NC(=O)[C@@H](C)NC(=O)[C@@H](NC(=O)[C@H](Cc1c[nH]c2ccccc12)NC(=O)[C@@H](N)CC(N)=O)[C@@H](C)O)C(=O)N[C@@H](CC(C)C)C(=O)N[C@@H](Cc1ccc(O)cc1)C(=O)N[C@@H](CC(C)C)C(=O)N[C@@H](CCCCN)C(=O)NCC(=O)N[C@@H](C)C(=O)N[C@@H](CCC(N)=O)C(N)=O [dA4] (H-NWT[dA]QAMLYLKGAQ-NH2)
8 | 38.9 ± 8 | 10.3 ± 0.3 ^a h | 21.4 ± 5.54 |  |  | CSCC[C@H](NC(=O)[C@H](C)NC(=O)[C@H](CCC(N)=O)NC(=O)[C@@H]1CCCN1C(=O)[C@@H](NC(=O)[C@H](Cc1c[nH]c2ccccc12)NC(=O)[C@H](N)CC(N)=O)[C@@H](C)O)C(=O)N[C@@H](CC(C)C)C(=O)N[C@@H](Cc1ccc(O)cc1)C(=O)N[C@@H](CC(C)C)C(=O)N[C@@H](CCCCN)C(=O)NCC(=O)N[C@@H](C)C(=O)N[C@@H](CCC(N)=O)C(N)=O [dN1]
9 | 324 ± 66.6 | 5.6 ± 0.2 ^a h | 77.6 ± 16 |  |  | CSCC[C@H](NC(=O)[C@H](C)NC(=O)[C@H](CCC(N)=O)NC(=O)[C@@H]1CCCN1C(=O)[C@@H](NC(=O)[C@H](Cc1c[nH]c2ccccc12)NC(=O)[C@@H](N)CC(N)=O)[C@@H](C)O)C(=O)N[C@@H](CC(C)C)C(=O)N[C@@H](Cc1ccc(O)cc1)C(=O)N[C@@H](CC(C)C)C(=O)N[C@@H](CCCCN)C(=O)NCC(=O)N[C@@H](C)C(=O)N[C@H](CCC(N)=O)C(N)=O [dQa14]
10 | 138 ± 23.2 | 4.5 ± 0.6 h | 100 ± 18.7 |  |  | CSCC[C@H](NC(=O)[C@H](C)NC(=O)[C@H](CCC(N)=O)NC(=O)[C@@H]1CCCN1C(=O)[C@@H](NC(=O)[C@@H](Cc1c[nH]c2ccccc12)NC(=O)[C@@H](N)CC(N)=O)[C@@H](C)O)C(=O)N[C@@H](CC(C)C)C(=O)N[C@@H](Cc1ccc(O)cc1)C(=O)N[C@@H](CC(C)C)C(=O)N[C@@H](CCCCN)C(=O)NCC(=O)N[C@@H](C)C(=O)N[C@@H](CCC(N)=O)C(N)=O [dW2]
